Legend:
EP2 [1] = molecular target: T1, EP2 (Homo sapiens, UniProt P43116); assay: EP2 cAMP functional assay; assay type: cell-based; conditions: unit inferred
Description: (§1) Data from running binding and activity studies on the compounds of the invention were carried out as described in the U.S. Pat. No. 7,427,685, the contents of which are incorporated herein by reference.

EP2 [2] = molecular target: T1, EP2; assay: EP2 binding; conditions: unit inferred
Description: as §1

EP4 [3] = molecular target: T2, EP4 (Homo sapiens, UniProt P35408); assay: EP4 binding; conditions: unit inferred
T2 sequence (P35408 whole entry): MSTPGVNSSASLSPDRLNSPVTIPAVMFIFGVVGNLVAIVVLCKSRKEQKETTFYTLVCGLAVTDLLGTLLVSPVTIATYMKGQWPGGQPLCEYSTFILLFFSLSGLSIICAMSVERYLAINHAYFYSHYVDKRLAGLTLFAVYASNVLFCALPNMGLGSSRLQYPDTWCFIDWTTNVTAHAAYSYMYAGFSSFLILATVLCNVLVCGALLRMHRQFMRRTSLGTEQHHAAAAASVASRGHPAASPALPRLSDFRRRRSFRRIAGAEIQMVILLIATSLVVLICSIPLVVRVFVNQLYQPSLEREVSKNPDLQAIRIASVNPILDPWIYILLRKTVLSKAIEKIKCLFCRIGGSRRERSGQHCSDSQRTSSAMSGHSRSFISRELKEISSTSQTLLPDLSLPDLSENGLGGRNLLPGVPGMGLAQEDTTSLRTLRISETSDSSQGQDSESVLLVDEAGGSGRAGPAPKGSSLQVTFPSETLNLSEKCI
Description: as §1

normotensive dogs = assay: Intraocular pressure and ocular surface hyperemia in normotensive dogs; assay type: in vivo, dog
Description: Isopropyl 2-(3-(6-hexyl-1-naphthamido)phenoxy)acetate was tested in normotensive dogs at 0.05%, dosing once daily for 5 days. The maximum intraocular pressure (IOP) decrease from baseline was 4.7 mmHg (28%) at 30 h; the maximum ocular surface hyperemia (OSH) score was 1.0 at 26 h. This compound was also tested in laser-induced hypertensive monkeys, using one single day dose. At 0.05%, the maximum IOP decrease from baseline was 17.1 mmHg (48%) at 24 h.
Isopropyl 2-(3-(6-(1-hydroxyhexyl)-1-naphthamido)phenoxy)acetate was tested in normotensive dogs at two concentrations, dosing once daily for 5 days. At 0.005%, the maximum intraocular pressure (IOP) decrease from baseline was 4.1 mmHg (22%) at 4 h; the maximum ocular surface hyperemia (OSH) score was 1.6 at 2 h. At 0.01%, the maximum intraocular pressure (IOP) decrease from baseline was 4.4 mmHg (26%) at 4 h; the maximum ocular surface hyperemia (OSH) score was 1.5 at 50 h. This compound was also tested in laser-induced hypertensive monkeys at two concentrations, using one single day dose. At 0.005%, the maximum IOP decrease from baseline was 8.1 mmHg (30%) at 24 h. At 0.01%, the maximum IOP decrease from baseline was 15.4 mmHg (42%) at 24 h.
Isopropyl 2-(3-(6-butyl-1-naphthamido)phenoxy)acetate was tested in normotensive dogs at 0.01%, dosing once daily for 4 days. The maximum intraocular pressure (IOP) decrease from baseline was 5.1 mmHg (26%) at 78 h; the maximum ocular surface hyperemia (OSH) score was 0.9 at 4 h. This compound was also tested in laser-induced hypertensive monkeys, using one single day dose. At 0.01%, the maximum IOP decrease from baseline was 14.1 mmHg (38%) at 24 h.
Isopropyl 2-(3-(3-hexylquinoline-8-carboxamido)phenoxy)acetate was tested in normotensive dogs at 0.01%, dosing once daily for 5 days. The maximum intraocular pressure (IOP) decrease from baseline was 2.8 mmHg (14%) at 100 h; the maximum ocular surface hyperemia (OSH) score was 0.8 at 28 h. This compound was also tested in laser-induced hypertensive monkeys, using one single day dose. At 0.01%, the maximum IOP decrease from baseline was 8.8 mmHg (19%) at 6 h.

EP4 [4] = molecular target: T2, EP4; assay: EP4 flipr functional assay; assay type: cell-based; conditions: unit inferred
Description: as §1

hTP = molecular target: T3, hTP (Homo sapiens, UniProt P21731); assay: Other receptors functional activity, hTP; assay type: cell-based
T3 sequence (P21731 1-343): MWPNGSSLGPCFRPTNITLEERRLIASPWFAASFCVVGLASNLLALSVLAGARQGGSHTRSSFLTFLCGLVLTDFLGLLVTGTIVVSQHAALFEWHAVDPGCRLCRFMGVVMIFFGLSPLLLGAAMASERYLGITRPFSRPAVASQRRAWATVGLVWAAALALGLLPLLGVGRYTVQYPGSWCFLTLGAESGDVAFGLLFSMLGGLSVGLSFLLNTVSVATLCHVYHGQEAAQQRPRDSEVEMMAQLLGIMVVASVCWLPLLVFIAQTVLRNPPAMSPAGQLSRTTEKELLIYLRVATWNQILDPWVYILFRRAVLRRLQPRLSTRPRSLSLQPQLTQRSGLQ
Description: as §1

hEP3A = molecular target: T4, hEP3A (Homo sapiens, UniProt P43115); assay: Other receptors functional activity, hEP3A; assay type: cell-based
T4 sequence (P43115 1-390): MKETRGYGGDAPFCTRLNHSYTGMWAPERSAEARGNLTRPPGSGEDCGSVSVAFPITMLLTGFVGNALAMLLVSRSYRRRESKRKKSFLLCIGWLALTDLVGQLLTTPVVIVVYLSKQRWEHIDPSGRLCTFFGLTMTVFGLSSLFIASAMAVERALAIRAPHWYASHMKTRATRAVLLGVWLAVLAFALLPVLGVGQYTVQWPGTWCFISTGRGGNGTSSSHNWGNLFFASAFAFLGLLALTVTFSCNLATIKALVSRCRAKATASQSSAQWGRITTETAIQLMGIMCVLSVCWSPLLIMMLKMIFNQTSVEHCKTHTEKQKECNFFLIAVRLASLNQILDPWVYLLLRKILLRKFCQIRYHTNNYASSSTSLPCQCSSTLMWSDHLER
Description: as §1

EP4 [5] = molecular target: T2, EP4; assay: EP4 cAMP functional assay; assay type: cell-based; conditions: unit inferred
Description: as §1

T1 sequence (P43116 whole entry): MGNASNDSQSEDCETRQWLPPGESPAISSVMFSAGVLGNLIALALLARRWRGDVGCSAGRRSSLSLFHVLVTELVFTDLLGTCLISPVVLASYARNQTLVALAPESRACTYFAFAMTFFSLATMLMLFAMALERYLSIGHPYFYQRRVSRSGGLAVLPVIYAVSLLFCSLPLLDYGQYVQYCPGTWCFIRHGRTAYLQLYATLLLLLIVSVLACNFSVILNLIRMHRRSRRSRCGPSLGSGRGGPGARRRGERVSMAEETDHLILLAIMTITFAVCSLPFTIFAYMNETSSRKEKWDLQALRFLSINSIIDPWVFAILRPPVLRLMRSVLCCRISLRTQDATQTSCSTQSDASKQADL

SMILES | EC50 (EP2 [1]) [nM] | Ki (EP2 [2]) [nM] | Ki (EP4 [3]) [µM] | also measured
CCCCCCc1ccc2c(C(=O)Nc3cccc(OCC(=O)OC(C)C)c3)cccc2c1 [Isopropyl 2-(3-(6-hexyl-1-naphthamido)phenoxy)acetate] | – | – | – | maximum ocular surface hyperemia (OSH) score (normotensive dogs; 0.05%, once daily for 5 days, at 26 h): 1.0
CCc1ccc2c(C(=O)Nc3cccc(OCC(=O)O)c3)cccc2c1 [Example 6, 2-(3-(6-Ethyl-1-naphthamido)phenoxy)acetic acid] | 5 | 112 | > 10 | –
Cc1ccc2c(C(=O)Nc3cccc(OCC(=O)O)c3)cccc2c1 [Example 7, 2-(3-(6-Methyl-1-naphthamido)phenoxy)acetic acid] | 65 | 1190 | > 10 | –
CCCCCCc1ccc2c(C(=O)NCCc3ccc(C(=O)O)s3)cccc2c1 [Example 9, 5-(2-(6-Hexyl-1-naphthamido)ethyl)thiophene-2-carboxylic acid] | 25 | 3210 | 2.45 | EC50 (EP4 [4]): 9.4 µM
CCCCc1ccc2c(C(=O)Nc3cccc(OCC(=O)OC(C)C)c3)cccc2c1 [Isopropyl 2-(3-(6-butyl-1-naphthamido)phenoxy)acetate] | – | – | – | maximum ocular surface hyperemia (OSH) score (normotensive dogs; 0.01%, once daily for 4 days, at 4 h): 0.9
CCCCCCc1cnc2c(C(=O)Nc3cccc(OCC(=O)OC(C)C)c3)cccc2c1 [Isopropyl 2-(3-(3-hexylquinoline-8-carboxamido)phenoxy)acetate] | – | – | – | maximum ocular surface hyperemia (OSH) score (normotensive dogs; 0.01%, once daily for 5 days, at 28 h): 0.8
CCCCCCc1ccc2c(C(=O)Nc3cccc(OCC(=O)O)c3)cccc2c1 [Example 1, 2-(3-(6-Hexyl-1-naphthamido)phenoxy)acetic acid] | 2 | 99 | > 10 | –
CCCCc1cnc2c(C(=O)Nc3cccc(OCC(=O)O)c3)cccc2c1 [Example 13, 2-(3-(3-Butylquinoline-8-carboxamido)phenoxy)acetic acid] | 2 | 27 | 2.06 | EC50 (EP4 [5]): > 10 µM
CCCCCC(O)c1ccc2c(C(=O)Nc3cccc(OCC(=O)O)c3)cccc2c1 (centres unmarked) [Example 10, 2-(3-(6-(1-hydroxyhexyl)-1-naphthamido)phenoxy)acetic acid] | 0.2 | 37 | > 10 | –
CCCCCOc1ccc2c(C(=O)Nc3cccc(OCC(=O)O)c3)cccc2c1 [Example 15, 2-(3-(6-(Pentyloxy)-1-naphthamido)phenoxy)acetic acid] | 25 | 201 | 8.48 | EC50 (EP4 [5]): > 10 µM
CCCCCC(O)c1ccc2c(C(=O)Nc3cccc(OCC(=O)OC(C)C)c3)cccc2c1 (centres unmarked) [Isopropyl 2-(3-(6-(1-hydroxyhexyl)-1-naphthamido)phenoxy)acetate] | – | – | – | maximum ocular surface hyperemia (OSH) score (normotensive dogs; 0.005%, once daily for 5 days, at 2 h): 1.6; maximum ocular surface hyperemia (OSH) score (normotensive dogs; 0.01%, once daily for 5 days, at 50 h): 1.5

Now from value to compound, other results behind:

EC50 (EP2 [1]) [nM] | Ki (EP2 [2]) [nM] | Ki (EP4 [3]) [µM] | SMILES | also measured
83 | 4600 | > 10 | O=C(O)COc1cccc(NC(=O)c2cccc3ccccc23)c1 [Example 8, 2-(3-(1-Naphthamido)phenoxy)acetic acid] | –
0.7 | 63 | 5.31 | CCCC(O)c1ccc2c(C(=O)Nc3cccc(OCC(=O)O)c3)cccc2c1 (centres unmarked) [Example 11, 2-(3-(6-(1-Hydroxybutyl)-1-naphthamido)phenoxy)acetic acid] | –
1 | 51 | > 10 | CCCCc1ccc2c(C(=O)Nc3cccc(OCC(=O)O)c3)cccc2c1 [Example 3, 2-(3-(6-Butyl-1-naphthamido)phenoxy)acetic acid] | –
0.8 | 25 | 2.15 | CCCCCCc1cnc2c(C(=O)Nc3cccc(OCC(=O)O)c3)cccc2c1 [Example 12, 2-(3-(3-Hexylquinoline-8-carboxamido)phenoxy)acetic acid] | EC50 (hTP): 6.56 µM; EC50 (EP4 [4]): 4.68 µM; EC50 (hEP3A): 13.3 µM
5 | 30 | 6.92 | CCCc1ccc2c(C(=O)Nc3cccc(OCC(=O)O)c3)cccc2c1 [Example 5, 2-(3-(6-Propyl-1-naphthamido)phenoxy)acetic acid] | EC50 (EP4 [4]): 7.13 µM
15 | 1200 | 7.68 | CCCCCCCc1ccc2c(C(=O)Nc3cccc(OCC(=O)O)c3)cccc2c1 [Example 4, 2-(3-(6-Heptyl-1-naphthamido)phenoxy)acetic acid] | EC50 (EP4 [4]): > 10 µM
12 | 350 | 2.03 | CCCCc1cnc2c(C(=O)NCCc3ccc(C(=O)O)s3)cccc2c1 [Example 14, 5-(2-(3-Butylquinoline-8-carboxamido)ethyl)thiophene-2-carboxylic acid] | EC50 (EP4 [5]): > 10 µM
2 | 383 | > 10 | CCCCCc1ccc2c(C(=O)Nc3cccc(OCC(=O)O)c3)cccc2c1 [Example 2, 2-(3-(6-Pentyl-1-naphthamido)phenoxy)acetic acid] | –

Reference: patent publication US9714238B2, “Therapeutic agents for ocular hypertension” (Allergan, Inc., priority 2010, dated 2017)
